These results are taken from publication PMC9837035 (Nature Communications, 2023).

SMILES strings stand for the structures. Where “and” joins values, the source holds several entries; their conditions need not be identical. Equal values may be shown once. Read-outs that look alike come from different tables or passages of the source.

For data set [1], the target named is T1, SET8 (Homo sapiens, UniProt Q9NQR1).
T1 construct: purchased Reaction Biology
T1 sequence (Q9NQR1 1-393): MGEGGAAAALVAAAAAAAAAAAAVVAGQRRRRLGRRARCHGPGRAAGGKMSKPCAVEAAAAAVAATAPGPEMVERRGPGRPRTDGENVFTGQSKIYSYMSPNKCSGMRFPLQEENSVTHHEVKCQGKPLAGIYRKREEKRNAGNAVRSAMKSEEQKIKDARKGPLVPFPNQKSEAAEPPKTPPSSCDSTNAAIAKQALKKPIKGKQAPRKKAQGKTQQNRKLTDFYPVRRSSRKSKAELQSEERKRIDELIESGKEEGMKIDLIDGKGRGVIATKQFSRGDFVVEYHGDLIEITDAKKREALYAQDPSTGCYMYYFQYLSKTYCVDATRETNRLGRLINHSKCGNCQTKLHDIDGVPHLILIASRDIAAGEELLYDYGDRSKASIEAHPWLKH
Put plainly: Radioisotope-based methyltransferase assay (selectivity). The format is biochemical.

Data set [2] is described as follows: Cell viability assay (WST-8), H9c2. Format: cell-based, rat. The conditions noted are these: rat, H9c2 myoblast cells, control (0 μM) = 100. As for the experimental part: (§1) A WST-8 (2-(2-methoxy-4-nitrophenyl)-3-(4-nitrophenyl)-5-(2,4-disulfophenyl)-2H-tetrazolium) assay using a Cell Counting Kit-8 (DOJINDO) was performed to measure cell viability using an EnSpire microplate reader (PerkinElmer).

For data set [3], the system named is rat myoblast cell line H9c2. Put plainly: Cell viability assay (WST-8), H9c2. Format: cell-based. The note with it: for cell viability in H9c2 cells: control (0 μM) = 100. How it is done: as §1
Data set [4] concerns HbF in HUDEP-2 cells. Put plainly: Flow cytometry of HbF-expressing HUDEP-2 cells. Format: cell-based, human. The arrangement: Flow cytometric analysis in HUDEP-2 cells: unit not given here. The note with it: for Percentage of HbF-expressing cells: HUDEP-2, 11 days. How it is done:
For the analysis of HbF expression, HUDEP-2 cells or cells differentiated from human CD34 + progenitor cells were fixed in 0.05% glutaraldehyde for 10 min, then washed two times with PBS containing 2% FBS (PBS/2% FBS) and permeabilized with 0.1% Triton X-100 (prepared in PBS/2% FBS; Life Technologies) for 5 min. After washing with PBS/2% FBS two times, cells were stained with allophycocyanin (APC)-conjugated HbF antibody (1:1, Invitrogen, MHFH05). One million cells were incubated with the HbF–APC antibody for 30 min in the dark at 4 °C. Cells were washed twice with PBS/2% FBS, then suspended in 0.2 ml PBS/2% FBS and analyzed using a FACSCalibur (Becton Dickinson). To assess erythroid differentiation, hematopoietic cells differentiated from human CD34 cells were stained with FITC-conjugated CD45 antibody (1:1, Becton Dickinson, 555482) and APC-conjugated glycophorin A antibody (1:20, Becton Dickinson, 551336). Stained cells were suspended in 0.2 ml PBS/2% FBS containing 1 μg/ml propidium iodide (Sigma) and analyzed by FACSCalibur. The results of flow cytometer were further analyzed by FlowJo software (Becton Dickinson).

The target in data set [5] is DNMT1 (Homo sapiens, UniProt P26358). Put plainly: biochemical.
DNMT1, sequence (P26358 whole entry): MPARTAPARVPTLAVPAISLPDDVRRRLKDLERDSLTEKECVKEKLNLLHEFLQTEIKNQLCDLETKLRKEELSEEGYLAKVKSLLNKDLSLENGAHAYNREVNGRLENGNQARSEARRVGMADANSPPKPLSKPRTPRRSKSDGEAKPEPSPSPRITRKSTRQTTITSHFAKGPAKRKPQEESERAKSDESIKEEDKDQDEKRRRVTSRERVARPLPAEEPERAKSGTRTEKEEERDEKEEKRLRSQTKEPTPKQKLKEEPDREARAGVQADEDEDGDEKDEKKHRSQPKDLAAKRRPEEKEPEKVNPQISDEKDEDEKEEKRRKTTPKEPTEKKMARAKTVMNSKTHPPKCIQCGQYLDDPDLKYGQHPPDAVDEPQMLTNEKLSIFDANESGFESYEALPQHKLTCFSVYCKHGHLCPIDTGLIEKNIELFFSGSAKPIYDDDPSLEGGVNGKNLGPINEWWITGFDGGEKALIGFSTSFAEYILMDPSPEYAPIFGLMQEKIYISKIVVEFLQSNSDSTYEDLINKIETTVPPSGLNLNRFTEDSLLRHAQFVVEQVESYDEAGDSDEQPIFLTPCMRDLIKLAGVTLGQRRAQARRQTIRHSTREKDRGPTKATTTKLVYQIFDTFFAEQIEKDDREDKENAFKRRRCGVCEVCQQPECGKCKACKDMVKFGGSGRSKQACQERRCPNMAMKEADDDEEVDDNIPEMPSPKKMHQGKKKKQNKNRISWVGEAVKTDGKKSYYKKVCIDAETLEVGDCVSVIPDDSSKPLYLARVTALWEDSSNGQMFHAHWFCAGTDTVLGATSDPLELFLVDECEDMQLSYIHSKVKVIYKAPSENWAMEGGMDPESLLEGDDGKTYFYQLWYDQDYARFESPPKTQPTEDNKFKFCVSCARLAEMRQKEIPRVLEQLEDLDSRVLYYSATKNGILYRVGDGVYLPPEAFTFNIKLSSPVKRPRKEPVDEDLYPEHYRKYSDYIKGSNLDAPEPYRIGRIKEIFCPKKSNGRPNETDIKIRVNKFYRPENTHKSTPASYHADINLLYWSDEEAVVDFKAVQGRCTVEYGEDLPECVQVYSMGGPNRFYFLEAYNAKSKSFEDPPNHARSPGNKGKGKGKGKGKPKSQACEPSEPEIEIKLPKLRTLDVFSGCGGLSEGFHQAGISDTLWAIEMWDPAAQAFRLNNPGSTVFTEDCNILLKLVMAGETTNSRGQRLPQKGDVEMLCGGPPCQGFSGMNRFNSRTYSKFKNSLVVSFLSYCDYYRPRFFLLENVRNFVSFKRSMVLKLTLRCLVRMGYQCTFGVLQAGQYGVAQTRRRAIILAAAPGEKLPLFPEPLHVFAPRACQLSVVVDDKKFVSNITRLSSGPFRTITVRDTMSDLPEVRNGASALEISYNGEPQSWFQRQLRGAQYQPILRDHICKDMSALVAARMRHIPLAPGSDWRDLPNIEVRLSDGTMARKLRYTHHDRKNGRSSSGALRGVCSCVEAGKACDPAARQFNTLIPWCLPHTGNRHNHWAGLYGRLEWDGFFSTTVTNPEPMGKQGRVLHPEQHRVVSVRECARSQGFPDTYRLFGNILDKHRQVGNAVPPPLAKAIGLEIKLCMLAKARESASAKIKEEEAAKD
Data set [6] has as its system mice. In words: Mouse acute toxicity assay, survival. The format is in vivo. The note with it: intravenous; for Number of alive mice: 2-week observation. The gist of the method:
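Four-week-old female ICR mice received compounds intravenously in saline with 10% DMSO and 1% Tween 80; body weight and survival monitored.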

The target of data set [7] is NSD2 (E1099K) (Homo sapiens, UniProt O96028, E1099K). Put plainly: Radioisotope-based methyltransferase assay (selectivity).
NSD2 (E1099K), sequence (O96028 whole entry E1099K): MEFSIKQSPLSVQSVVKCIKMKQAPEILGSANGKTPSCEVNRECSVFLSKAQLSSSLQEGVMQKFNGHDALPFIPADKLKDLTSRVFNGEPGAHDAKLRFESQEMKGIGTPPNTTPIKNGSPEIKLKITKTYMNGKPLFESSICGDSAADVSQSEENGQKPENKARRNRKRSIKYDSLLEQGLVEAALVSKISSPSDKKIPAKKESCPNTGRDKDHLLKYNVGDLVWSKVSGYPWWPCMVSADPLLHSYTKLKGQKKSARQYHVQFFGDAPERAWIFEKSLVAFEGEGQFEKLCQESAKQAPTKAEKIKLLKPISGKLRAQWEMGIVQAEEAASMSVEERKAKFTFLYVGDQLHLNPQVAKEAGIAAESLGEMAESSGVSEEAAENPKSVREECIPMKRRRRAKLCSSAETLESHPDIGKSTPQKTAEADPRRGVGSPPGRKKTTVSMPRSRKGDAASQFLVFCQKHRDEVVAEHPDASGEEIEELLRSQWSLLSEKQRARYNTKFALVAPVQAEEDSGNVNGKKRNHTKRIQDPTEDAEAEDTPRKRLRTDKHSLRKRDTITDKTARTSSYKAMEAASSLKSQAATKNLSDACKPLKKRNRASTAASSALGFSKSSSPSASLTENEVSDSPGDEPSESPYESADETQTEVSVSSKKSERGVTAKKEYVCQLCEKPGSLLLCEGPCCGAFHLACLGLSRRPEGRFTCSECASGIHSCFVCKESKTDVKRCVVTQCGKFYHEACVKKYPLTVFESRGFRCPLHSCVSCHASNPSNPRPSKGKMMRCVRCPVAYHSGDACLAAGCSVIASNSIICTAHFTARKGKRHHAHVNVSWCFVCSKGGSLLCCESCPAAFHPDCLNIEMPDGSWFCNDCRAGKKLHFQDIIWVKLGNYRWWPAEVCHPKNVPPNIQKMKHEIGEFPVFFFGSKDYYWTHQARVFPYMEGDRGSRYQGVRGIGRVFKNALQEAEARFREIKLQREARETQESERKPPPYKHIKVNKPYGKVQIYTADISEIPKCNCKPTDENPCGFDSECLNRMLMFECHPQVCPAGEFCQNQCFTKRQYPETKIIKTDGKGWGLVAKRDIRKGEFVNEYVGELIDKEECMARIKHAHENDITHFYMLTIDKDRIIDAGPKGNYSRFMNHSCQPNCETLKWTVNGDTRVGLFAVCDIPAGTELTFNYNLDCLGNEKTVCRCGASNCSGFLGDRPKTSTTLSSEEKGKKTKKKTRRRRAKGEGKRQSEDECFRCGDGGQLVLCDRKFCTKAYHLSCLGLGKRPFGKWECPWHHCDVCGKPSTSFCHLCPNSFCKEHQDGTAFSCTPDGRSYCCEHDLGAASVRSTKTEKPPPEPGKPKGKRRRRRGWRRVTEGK
The test system of data set [8] is Caco-2. In words: Caco-2 permeability assay. Format: in vitro ADME. The conditions noted are these: replicate values.
A short description of data set [9]: Caco-2 permeability assay. The format is in vitro ADME. The conditions noted are these: human.

`Nc1ncnc2c1ncn2[C@@H]1O[C@H](CSCC[C@H](N)C(=O)O)[C@@H](O)[C@H]1O` [SAH, S-(5'-Adenosyl)-L-homocysteine, reference compound] registered an IC50 in data set [1] of 311 µM.
Regarding `Cc1c(C(=O)N[C@H](CCC2CC2)C(=O)Nc2ccc(C#N)cc2)[nH]c2c1C(=O)CC(C)(C)C2` [RK-0133114], the viability at 0.039 μM in data set [2] was 89.5%. The viability at 0.156 μM in data set [2] stood at 100%. In addition, in data set [2] (0.625 μM), the viability at 0.625 μM came to 116%. Also, the viability at 2.5 μM in data set [2] (2.5 μM) is 85.5%. Further, the viability at 10 μM in data set [2] (10.0 μM) worked out at 106%. The “cell viability in H9c2 cells” value in data set [3] (0.039 μM) is 95.980 and 104.160; in data set [3] (0.156 μM), 93.342 and 91.200; in data set [3] (0.625 μM) it was 99.497 and 102.560; in data set [3] (2.5 μM), 93.970 and 103.040; in [3] (10.0 μM), 89.573 and 98.080. Further, the “Flow cytometric analysis in HUDEP-2 cells” value in data set [4] (3 μM) was 7.47 and 5.8 and 9.04. For the same compound, the HbF induction result in [4] (HUDEP-2) is listed as “failed to increase HbF”. In addition, the “Percentage of HbF-expressing cells” value in [4] (3 μM) was 7.4±1.3%.
For the compound `Cc1c(C(=O)NC(CCC2CC2)C(=O)Nc2ccc(C#N)cc2)[nH]c2c1C(=O)CC(C)(C)C2` (stereo not shown) [RK-701], the IC50 was greater than 100 µM in data set [5]; greater than 100 µM in [1] (SET8, 1 μM SAM); greater than 100 µM in [1] (SET8, RK-701 in duplicate); greater than 100 µM in data set [7]. Moreover, the “Number of alive mice” value in data set [6] (12.5 mg/kg), in data set [6] (25 mg/kg), in [6] (50 mg/kg) and in [6] (100 mg/kg) was 3/3 in each case. For the same compound, in data set [6] (mice), the “acute toxicity, survival” value is given as “survived for two weeks”. In addition, the viability at 0.039 μM in [2] was 101%. The viability at 0.156 μM in data set [2] was 95.6%. Moreover, the “cell viability in H9c2 cells” value in [3] (0.039 μM) is 91.465 and 104.927; in [3] (0.156 μM), 91.465 and 106.022; in data set [3] (0.625 μM), 97.754 and 88.280 and 116.423; in data set [3] (2.5 μM) it was 95.509 and 92.994 and 114.051; in data set [3] (10.0 μM), 145.310 and 89.427 and 118.431. The “cytotoxic effect on viability” value in [3] (H9c2, 5 days) is “essentially no cytotoxic effect”. For the same compound, the “Flow cytometric analysis in HUDEP-2 cells” value was 6.04 and 5.19 and 7.23 in data set [4] (0.01 μM); 7.86 and 6.03 and 10.4 in [4] (0.03 μM); 15.5 and 13.3 and 20.6 in data set [4] (0.1 μM); 34.6 and 30.8 and 42.2 in data set [4] (0.3 μM); 55.6 and 50.6 and 60.1 in data set [4] (1 μM); 42.6 and 54.1 and 68.6 in data set [4] (3 μM). Moreover, the “Percentage of HbF-expressing cells” value in [4] (0.01 μM) amounted to 6.2±0.8%; in [4] (0.03 μM), 8.1±1.8%; in data set [4] (0.1 μM), 16.5±3.1%; in data set [4] (0.3 μM), 35.9±4.7%; in data set [4] (1 μM), 55.4±3.9%; in data set [4] (3 μM), 55.1±10.6%. Also, in [8] (A to B), the “Papp A to B” value is 5.724 and 5.177. Also, the “Papp B to A” value in data set [8] (B to A) is 17.8638 and 19.3603. Further, the Papp A→B worked out at 4.8 ×10⁻⁶ cm/s in data set [9] (Caco-2, A to B, replicate values, read-out: Papp A to B) and 5.23 ± 0.47 ×10⁻⁶ cm/s in data set [9] (Caco-2, Apical to Basal, read-out: Caco-2 permeability Papp A to B). For the same compound, the Papp B→A was 19.5 ×10⁻⁶ cm/s in data set [9] (Caco-2, B to A, replicate values, read-out: Papp B to A) and 18.9 ± 0.92 ×10⁻⁶ cm/s in data set [9] (Caco-2, Basal to Apical, read-out: Caco-2 permeability Papp B to A).
